The values that follow come from patent US12110295B2, “WD40 repeat domain protein 5 (WDR5) degradation/disruption compounds and methods of use” (Icahn School of Medicine at Mount Sinai, priority 2018, dated 2024).

Molecules are shown by their SMILES.

This assay addresses WDR5 (Homo sapiens, UniProt P61964). As to the kind of experiment: Screening of putative WDR5 degraders by Western blot in MV4;11 and/or MIAPACA2 cells. To be noted: summary of screening, FIGS. 6-10. In kind it is cell-based. The arrangement: After WDR5 degrader treatment, cells were collected and lysed; endogenous in cells; host or cells: MV4;11 and/or MIAPACA2. In outline: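 MV4;11 (1×10^6/well) or MIAPACA2 (1×10^5/well) cells treated 18 h with compound at paired doses between 0.1 and 10 μM, DMSO as control. Total lysates immunoblotted for WDR5 with vinculin, tubulin or GAPDH loading controls; fluorescent secondary detection.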
`Cc1ncsc1-c1ccc(CNC(=O)[C@@H]2C[C@@H](O)CN2C(=O)[C@@H](NC(=O)COCCNC(=O)CCC(=O)N2CCN(c3ncc(-c4cc(NC(=O)c5c[nH]c(=O)cc5C(F)(F)F)c(N5C[C@@H](C)N(C)[C@@H](C)C5)cc4F)cn3)CC2)C(C)(C)C)cc1` [XF078-61, N-(4-fluoro-5-(2-(4-(4-((2-(2-(((S)-1-((2S,4R)-4-hydroxy-2-((4-(4-methylthiazol-5-yl)benzyl)carbamoyl)pyrrolidin-1-yl)-3,3-dimethyl-1-oxobutan-2-yl)amino)-2-oxoethoxy)ethyl)amino)-4-oxobutanoyl)piperazin-1-yl)pyrimidin-5-yl)-2-((3S,5R)-3,4,5-trimethylpiperazin-1-yl)phenyl)-6-oxo-4-(trifluoromethyl)-1,6-dihydropyridine-3-carboxamide]: the “effective degradation of WDR5 in MV4;11 and/or MIAPACA2 cells” value (shortened to “effective degradation of WDR5”) is “able to effectively degrade WDR5”. Consider `Cc1ncsc1-c1ccc(CNC(=O)[C@@H]2C[C@@H](O)CN2C(=O)[C@@H](NC(=O)COCC(=O)N2CCN(c3ncc(-c4cc(NC(=O)c5ccc(F)cc5C(F)(F)F)c(N5C[C@@H](C)N(C)[C@@H](C)C5)cc4F)cn3)CC2)C(C)(C)C)cc1` [XF078-99, (2S,4R)-1-((S)-2-(2-(2-(4-(5-(2-fluoro-5-(4-fluoro-2-(trifluoromethyl)benzamido)-4-((3S,5R)-3,4,5-trimethylpiperazin-1-yl)phenyl)pyrimidin-2-yl)piperazin-1-yl)-2-oxoethoxy)acetamido)-3,3-dimethylbutanoyl)-4-hydroxy-N-(4-(4-methylthiazol-5-yl)benzyl)pyrrolidine-2-carboxamide], for which the “effective degradation of WDR5” value is “able to effectively degrade WDR5”.

`Cc1ncsc1-c1ccc(CNC(=O)[C@@H]2C[C@@H](O)CN2C(=O)[C@@H](NC(=O)CCOCCOCCOCCOCCC(=O)N2CCN(Cc3cnc(N4CC=C(c5cc(NC(=O)c6c[nH]c(=O)cc6C(F)(F)F)c(N6C[C@@H](C)N(C)[C@@H](C)C6)cc5F)CC4)nc3)CC2)C(C)(C)C)cc1` [XF078-138, N-(4-fluoro-5-(1-(5-((4-((S)-18-((2S,4R)-4-hydroxy-2-((4-(4-methylthiazol-5-yl)benzyl)carbamoyl)pyrrolidine-1-carbonyl)-19,19-dimethyl-16-oxo-4,7,10,13-tetraoxa-17-azaicosanoyl)piperazin-1-yl)methyl)pyrimidin-2-yl)-1,2,3,6-tetrahydropyridin-4-yl)-2-((3S,5R)-3,4,5-trimethylpiperazin-1-yl)phenyl)-6-oxo-4-(trifluoromethyl)-1,6-dihydropyridine-3-carboxamide]: the “effective degradation of WDR5” value was “able to effectively degrade WDR5”.

As for `C[C@@H]1CN(c2ccc(-c3cc(CN4CCN(CCNC(=O)CCOCCOCCOCCOCCOCCNc5cccc6c5C(=O)N(C5CCC(=O)NC5=O)C6=O)CC4)ccc3F)cc2NC(=O)c2c[nH]c(=O)cc2C(F)(F)F)C[C@H](C)N1C` (stereo partly drawn) [XF078-29, N-(5′-((4-(1-((2-(2,6-dioxopiperidin-3-yl)-1,3-dioxoisoindolin-4-yl)amino)-18-oxo-3,6,9,12,15-pentaoxa-19-azahenicosan-21-yl)piperazin-1-yl)methyl)-2′-fluoro-4-((3S,5R)-3,4,5-trimethylpiperazin-1-yl)-[1,1′-biphenyl]-3-yl)-6-oxo-4-(trifluoromethyl)-1,6-dihydropyridine-3-carboxamide], the “effective degradation of WDR5” value was “able to effectively degrade WDR5”.

As for `C[C@@H]1CN(c2ccc(-c3cc(CN4CCN(CCNC(=O)CCCCCCNc5cccc6c5C(=O)N(C5CCC(=O)NC5=O)C6=O)CC4)ccc3F)cc2NC(=O)c2c[nH]c(=O)cc2C(F)(F)F)C[C@H](C)N1C` (stereo partly drawn) [XF078-23, N-(5′-((4-(2-(7-((2-(2,6-dioxopiperidin-3-yl)-1,3-dioxoisoindolin-4-yl)amino)heptanamido)ethyl)piperazin-1-yl)methyl)-2′-fluoro-4-((3S,5R)-3,4,5-trimethylpiperazin-1-yl)-[1,1′-biphenyl]-3-yl)-6-oxo-4-(trifluoromethyl)-1,6-dihydropyridine-3-carboxamide], the “effective degradation of WDR5” value was “able to effectively degrade WDR5”.

For `C[C@@H]1CN(c2ccc(-c3ccc(C(=O)NCCCCCCCCNc4cccc5c4C(=O)N(C4CCC(=O)NC4=O)C5=O)cc3F)cc2NC(=O)c2c[nH]c(=O)cc2C(F)(F)F)C[C@H](C)N1C` (stereo partly drawn) [XF056-186, N-(4′-((8-((2-(2,6-dioxopiperidin-3-yl)-1,3-dioxoisoindolin-4-yl)amino)octyl)carbamoyl)-2′-fluoro-4-((3R,5S)-3,4,5-trimethylpiperazin-1-yl)-[1,1′-biphenyl]-3-yl)-6-oxo-4-(trifluoromethyl)-1,6-dihydropyridine-3-carboxamide], the “effective degradation of WDR5” value is given as “able to effectively degrade WDR5”. For `Cc1ncsc1-c1ccc(CNC(=O)[C@@H]2C[C@@H](O)CN2C(=O)[C@@H](NC(=O)COCC(=O)N2CCN(Cc3cnc(N4CC=C(c5cc(NC(=O)c6c[nH]c(=O)cc6C(F)(F)F)c(N6C[C@@H](C)N(C)[C@@H](C)C6)cc5F)CC4)nc3)CC2)C(C)(C)C)cc1` [XF078-132, N-(4-fluoro-5-(1-(5-((4-(2-(2-(((S)-1-((2S,4R)-4-hydroxy-2-((4-(4-methylthiazol-5-yl)benzyl)carbamoyl)pyrrolidin-1-yl)-3,3-dimethyl-1-oxobutan-2-yl)amino)-2-oxoethoxy)acetyl)piperazin-1-yl)methyl)pyrimidin-2-yl)-1,2,3,6-tetrahydropyridin-4-yl)-2-((3S,5R)-3,4,5-trimethylpiperazin-1-yl)phenyl)-6-oxo-4-(trifluoromethyl)-1,6-dihydropyridine-3-carboxamide], the “effective degradation of WDR5” value is listed as “able to effectively degrade WDR5”. Turning to `Cc1ncsc1-c1ccc(CNC(=O)[C@@H]2C[C@@H](O)CN2C(=O)[C@@H](NC(=O)CCCCC(=O)NCCN2CCN(Cc3ccc(F)c(-c4ccc(N5C[C@@H](C)N(C)[C@@H](C)C5)c(NC(=O)c5c[nH]c(=O)cc5C(F)(F)F)c4)c3)CC2)C(C)(C)C)cc1` [XF078-12, N^1-(2-(4-((6-fluoro-3′-(6-oxo-4-(trifluoromethyl)-1,6-dihydropyridine-3-carboxamido)-4′-((3S,5R)-3,4,5-trimethylpiperazin-1-yl)-[1,1′-biphenyl]-3-yl)methyl)piperazin-1-yl)ethyl)-N^6-((S)-1-((2S,4R)-4-hydroxy-2-((4-(4-methylthiazol-5-yl)benzyl)carbamoyl)pyrrolidin-1-yl)-3,3-dimethyl-1-oxobutan-2-yl)adipamide], the “effective degradation of WDR5” value is on record as “able to effectively degrade WDR5”. Turning to `Cc1ncsc1-c1ccc(CNC(=O)[C@@H]2C[C@@H](O)CN2C(=O)[C@@H](NC(=O)CCCCC(=O)N2CCN(Cc3cnc(N4CC=C(c5cc(NC(=O)c6c[nH]c(=O)cc6C(F)(F)F)c(N6C[C@@H](C)N(C)[C@@H](C)C6)cc5F)CC4)nc3)CC2)C(C)(C)C)cc1` [XF078-143, N-(4-fluoro-5-(1-(5-((4-(6-(((S)-1-((2S,4R)-4-hydroxy-2-((4-(4-methylthiazol-5-yl)benzyl)carbamoyl)pyrrolidin-1-yl)-3,3-dimethyl-1-oxobutan-2-yl)amino)-6-oxohexanoyl)piperazin-1-yl)methyl)pyrimidin-2-yl)-1,2,3,6-tetrahydropyridin-4-yl)-2-((3S,5R)-3,4,5-trimethylpiperazin-1-yl)phenyl)-6-oxo-4-(trifluoromethyl)-1,6-dihydropyridine-3-carboxamide], the “effective degradation of WDR5” value was “able to effectively degrade WDR5”. On to `C[C@@H]1CN(c2ccc(-c3cc(CN4CCN(CCNC(=O)CCOCCNc5cccc6c5C(=O)N(C5CCC(=O)NC5=O)C6=O)CC4)ccc3F)cc2NC(=O)c2c[nH]c(=O)cc2C(F)(F)F)C[C@H](C)N1C` (stereo partly drawn) [XF078-25, N-(5′-((4-(2-(3-(2-((2-(2,6-dioxopiperidin-3-yl)-1,3-dioxoisoindolin-4-yl)amino)ethoxy)propanamido)ethyl)piperazin-1-yl)methyl)-2′-fluoro-4-((3S,5R)-3,4,5-trimethylpiperazin-1-yl)-[1,1′-biphenyl]-3-yl)-6-oxo-4-(trifluoromethyl)-1,6-dihydropyridine-3-carboxamide], for which the “effective degradation of WDR5” value is “able to effectively degrade WDR5”. Consider `Cc1ncsc1-c1ccc([C@H](C)NC(=O)[C@@H]2C[C@@H](O)CN2C(=O)[C@@H](NC(=O)CCCCCCCCCC(=O)N2CCN(c3ccc(-c4cc(NC(=O)c5c[nH]c(=O)cc5C(F)(F)F)c(N5C[C@@H](C)N(C)[C@@H](C)C5)cc4F)cn3)CC2)C(C)(C)C)cc1` [XF067-134, N-(4-fluoro-5-(6-(4-(11-(((S)-1-((2S,4R)-4-hydroxy-2-(((S)-1-(4-(4-methylthiazol-5-yl)phenyl)ethyl)carbamoyl)pyrrolidin-1-yl)-3,3-dimethyl-1-oxobutan-2-yl)amino)-11-oxoundecanoyl)piperazin-1-yl)pyridin-3-yl)-2-((3S,5R)-3,4,5-trimethylpiperazin-1-yl)phenyl)-6-oxo-4-(trifluoromethyl)-1,6-dihydropyridine-3-carboxamide], for which the “effective degradation of WDR5” value is “able to effectively degrade WDR5”. `C[C@@H]1CN(c2ccc(-c3cc(CN4CCN(CCNC(=O)CCCNc5cccc6c5C(=O)N(C5CCC(=O)NC5=O)C6=O)CC4)ccc3F)cc2NC(=O)c2c[nH]c(=O)cc2C(F)(F)F)C[C@H](C)N1C` (stereo partly drawn) [XF078-20, N-(5′-((4-(2-(4-((2-(2,6-dioxopiperidin-3-yl)-1,3-dioxoisoindolin-4-yl)amino)butanamido)ethyl)piperazin-1-yl)methyl)-2′-fluoro-4-((3S,5R)-3,4,5-trimethylpiperazin-1-yl)-[1,1′-biphenyl]-3-yl)-6-oxo-4-(trifluoromethyl)-1,6-dihydropyridine-3-carboxamide]: the “effective degradation of WDR5” value is given as “able to effectively degrade WDR5”.
